The values below come from patent US20240083890A1, “MACROCYCLIC BRANCHED 3-FLUORO-BUT-3-ENAMIDES AS INHIBITORS OF MCL-1” (JANSSEN PHARMACEUTICA NV, priority 2020, published 2024).

Experiment [1] relates to MOLP-8 human multiple myeloma cell line. The experiment is described as follows: Caspase-Glo 3/7 apoptosis induction assay in MOLP-8 cells. The experiment is classed as cell-based. The note with it: Homo sapiens, MOLP-8; caspase-3/7 activation, 2 hours incubation at 37° C.; averaged over all runs on all batches; read-out: MOLP8 AC50. From the text: MCL-1 is a regulator of apoptosis and is highly over-expressed in tumor cells that escape cell death. The assay evaluates the cellular potency of small-molecule compounds targeting regulators of the apoptosis pathway, primarily MCL-1, Bfl-1, Bcl-2, and other proteins of the Bcl-2 family. Protein-protein inhibitors disrupting the interaction of anti-apoptotic regulators with BH3-domain proteins initiate apoptosis.
The Caspase-Glo® 3/7 Assay is a luminescent assay that measures caspase-3 and -7 activities in purified enzyme preparations or cultures of adherent or suspension cells. The assay provides a proluminescent caspase-3/7 substrate, which contains the tetrapeptide sequence DEVD. This substrate is cleaved to release aminoluciferin, a substrate of luciferase used in the production of light. Addition of the single Caspase-Glo® 3/7 Reagent in an “add-mix-measure” format results in cell lysis, followed by caspase cleavage of the substrate and generation of a “glow-type” luminescent signal.
This assay uses the MOLP-8 human multiple myeloma cell line, which is sensitive to MCL-1 inhibition.
Cell cultures were maintained between 0.2 and 2.0×10^6 cells/mL. The cells were harvested by collection in 50 mL conical tubes. The cells were then pelleted at 500 g for 5 mins before removing supernatant and resuspension in fresh pre-warmed culture medium. The cells were counted and diluted as needed.
The assay reagent was prepared by transferring the buffer solution to the substrate vial and mixing. The solution may be stored for up to 1 week at 4° C. with negligible loss of signal.
Compounds were delivered in assay-ready plates (Proxiplate) and stored at −20° C.
Assays always include 1 reference compound plate containing reference compounds. The plates were spotted with 40 nL of compounds (0.5% DMSO final in cells; serial dilution; 30 μM highest conc. 1/3 dilution, 10 doses, duplicates). The compounds were used at room temperature and 4 μL of pre-warmed media was added to all wells except column 2 and 23. The negative control was prepared by adding 1% DMSO in media. The positive control was prepared by adding the appropriate positive control compound in final concentration of 60 μM in media. The plate was prepared by adding 4 μL negative control to column 23, 4 μL positive control to column 2, and 4 μL cell suspension to all wells in the plate. The plate with cells was then incubated at 37° C. for 2 hours. The assay signal reagent is the Caspase-Glo solution described above, and 8 μL was added to all wells. The plates were then sealed and measured after 30 minutes.
The activity of a test compound was calculated as percent change in apoptosis induction as follows: • LC=median of the Low Control values • =Central Reference in Screener • =DMSO • =0% • HC=Median of the High Control values • =Scale Reference in Screener • =30 μM of positive control • =100% apoptosis induction
% Effect (AC50)=100−((sample-LC)/(HC-LC))*100
% Control=(sample/HC)*100
% Control min=((sample-LC)/(HC-LC))*100
Table: Measured AC50 for Representative Compounds of Formula (I). Averaged values are reported over all runs on all batches of a particular compound.

The next experiment addresses Mcl-1 (Homo sapiens (Human), UniProt Q07820). The experiment is described as follows: Terbium labeled Mcl-1 HTRF binding assay, displacement of Cy5-labeled BIM BH3 peptide. The conditions noted are these: Ki=IC50/(1+[L]/Kd), [L]=8 nM, Kd=10 nM; 25 pM Tb-Mcl-1, 8 nM Cy5 Bim peptide, 60 min; read-out: Tb-MCL1 Ki. On the procedure: Terbium labeled Myeloid Cell Leukemia 1(Mcl-1) homogeneous time-resolved fluorescence (HTRF) binding assay utilizing the BIM BH3 peptide (H2N—(C/Cy5Mal) WIAQELRRIGDEFN-OH) as the binding partner for Mcl-1.
This assay evaluated inhibition of the BH3 domain: Mcl-1 interaction by measuring the displacement of Cy5-labeled BIM BH3 peptide (H2N—(C/Cy5Mal) WIAQELRRIGDEFN-OH) in the HTRF assay format.
The following assay and stock buffers were prepared for use in the assay: (a) Stock buffer: 10 mM Tris-HCl, pH=7.5+150 mM NaCl, filtered, sterilized, and stored at 4° C.; and (b) 1× assay buffer, where the following ingredients were added fresh to stock buffer: 2 mM dithiothreitol (DTT), 0.0025% Tween-20, 0.1 mg/mL bovine serum albumin (BSA). The 1× Tb-Mcl-1+Cy5 Bim peptide solution was prepared by diluting the protein stock solution using the 1× assay buffer (b) to 25 pM Tb-Mcl-1 and 8 nM Cy5 Bim peptide.
Using the Acoustic ECHO, 100 nL of 100× test compound(s) were dispensed into individual wells of a white 384-well Perkin Elmer Proxiplate, for a final compound concentration of 1× and final DMSO concentration of 1%. Inhibitor control and neutral control (NC, 100 nL of 100% DMSO) were stamped into columns 23 and 24 of assay plate. Into each well of the plate was then dispensed 10 μL of the 1× Tb-Mcl-1+Cy5 Bim peptide solution. The plate was centrifuged with a cover plate at 1000 rpm for 1 minute, then incubated for 60 minutes at room temperature with plates covered.
The TR-FRET signal was read on an BMG PHERAStar FSX MicroPlate Reader at room temperature using the HTRF optic module (HTRF: excitation: 337 nm, light source: laser, emission A: 665 nm, emission B: 620 nm, integration start: 60 μs, integration time: […]).
The BMG PHERAStar FSX MicroPlate Reader was used to measure fluorescence intensity at two emission wavelengths—665 nm and 620 nm—and report relative fluorescence units (RFU) for both emissions, as well as a ratio of the emissions (665 nm/620 nm)*10,000. The RFU values were normalized to percent inhibition as follows:
% inhibition (((NC−IC)−(compound-IC))/(NC−IC))*100
where IC (inhibitor control, low signal)=mean signal of 1× Tb-MCl-1+Cy5 Bim peptide+inhibitor control or 100% inhibition of Mel-1; NC (neutral control, high signal)=mean signal 1× Tb-MCI-1+Cy5 Bim peptide with DMSO only or 0% inhibition
An 11-point dose response curve was generated to determine IC50 values (using GenData) based on the following equation:
Y=Bottom+(Top-Bottom)/(1+10^((log IC50−X)*HillSlope))
where Y=% inhibition in the presence of X inhibitor concentration; Top=100% inhibition derived from the IC (mean signal of Mcl-1+inhibitor control); Bottom=0% inhibition derived from the NC (mean signal of Mcl-1+DMSO); Hillslope=Hill coefficient; and IC50=concentration of compound with 50% inhibition in relation to top/neutral control (NC).
In this assay [L]=8 nM and Kd=10 nM
Representative compounds of the present invention were tested according to the procedure as described above, with results as listed in the Table below (n.d. means not determined).

Chain of Mcl-1 (Q07820 whole entry, the tested form may be a part): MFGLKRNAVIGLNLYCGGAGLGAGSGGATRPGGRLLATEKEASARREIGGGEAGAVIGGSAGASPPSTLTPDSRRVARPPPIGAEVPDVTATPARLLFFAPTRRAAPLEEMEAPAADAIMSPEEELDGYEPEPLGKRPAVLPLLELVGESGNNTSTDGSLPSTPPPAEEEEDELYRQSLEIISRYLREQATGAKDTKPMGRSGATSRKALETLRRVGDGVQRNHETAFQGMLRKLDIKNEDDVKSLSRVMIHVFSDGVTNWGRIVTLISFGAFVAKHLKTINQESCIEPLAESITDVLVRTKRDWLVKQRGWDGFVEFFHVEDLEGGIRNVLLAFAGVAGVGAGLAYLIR

Take `C[C@@H]1[C@@H](C)C/C=C(\F)[C@H]([C@@H](O)COCC2CCOCC2)N2CC[C@H]2CN2C[C@@]3(CCCc4cc(Cl)ccc43)COc3ccc(cc32)C(=O)NS1(=O)=O` [Compound 6]: the AC50 in experiment [1] was determined as 68.5 nM. In addition, the Ki on Mcl-1 was 0.053 nM.
For `CO[C@H]1COC(C)(C)OC[C@@]12/C(F)=C/C[C@H](C)[C@@H](C)S(=O)(=O)NC(=O)c1ccc3c(c1)N(C[C@@H]1CCCN12)C[C@@]1(CCCc2cc(Cl)ccc21)CO3` [Compound 12] the same measures were 885 nM and 0.359 nM.
Turning to `COCCN(C)C[C@H](O)[C@H]1/C(F)=C/C[C@H](C)[C@@H](C)S(=O)(=O)NC(=O)c2ccc3c(c2)N(C[C@@H]2CCN21)C[C@@]1(CCCc2cc(Cl)ccc21)CO3` [Compound 29], the AC50 in experiment [1] was found to be 385 nM. In addition, the Ki on Mcl-1 came to 0.044 nM.
On to `C[C@@H]1[C@@H](C)C/C=C(\F)[C@H]([C@@H](C)O)N2CCC[C@H]2CN2C[C@@]3(CCCc4cc(Cl)ccc43)COc3ccc(cc32)C(=O)NS1(=O)=O` [Compound 3], for which the AC50 in experiment [1] amounted to 217 nM. Moreover, the Ki on Mcl-1 turned out to be 1.56 nM.
As for `C[C@@H]1[C@@H](C)C/C=C(\F)[C@@]2(COC(C)(C)OC[C@@H]2O)N2CC[C@H]2CN2C[C@@]3(CCCc4cc(Cl)ccc43)COc3ccc(cc32)C(=O)NS1(=O)=O` [Compound 9], the AC50 in experiment [1] was 64.8 nM. The Ki at Mcl-1 is 0.04 nM.
The matching figures for `COCCN(CCOC)C[C@H](O)[C@H]1/C(F)=C/C[C@H](C)[C@@H](C)S(=O)(=O)NC(=O)c2ccc3c(c2)N(C[C@@H]2CCN21)C[C@@]1(CCCc2cc(Cl)ccc21)CO3` [Compound 23]: 69.6 nM and 0.023 nM.
The matching figures for `C[C@@H]1[C@@H](C)C/C=C(\F)[C@H]([C@@H](O)CN2CCOCC2)N2CC[C@H]2CN2C[C@@]3(CCCc4cc(Cl)ccc43)COc3ccc(cc32)C(=O)NS1(=O)=O` [Compound 21]: 87.9 nM and 0.051 nM.
For `C[C@@H]1[C@@H](C)C/C=C(\F)[C@H]([C@@H](C)O)N2CC[C@H]2CN2C[C@@]3(CCCc4cc(Cl)ccc43)COc3ccc(cc32)C(=O)NS1(=O)=O` [Compound 1] the same measures were 116 nM and 0.326 nM.
Take `COC[C@H](O)[C@@]1(COC)/C(F)=C/C[C@H](C)[C@@H](C)S(=O)(=O)NC(=O)c2ccc3c(c2)N(C[C@@H]2CCN21)C[C@@]1(CCCc2cc(Cl)ccc21)CO3` [Compound 16]: the AC50 in experiment [1] came to 222 nM. Besides, on Mcl-1, the Ki came to 0.072 nM.
Take `C[C@@H]1[C@@H](C)C/C=C(\F)[C@H]([C@@H](O)COC2CCOCC2)N2CCC[C@H]2CN2C[C@@]3(CCCc4cc(Cl)ccc43)COc3ccc(cc32)C(=O)NS1(=O)=O` [Compound 20]: in experiment [1], the AC50 was 272 nM. Moreover, the Ki on Mcl-1 amounted to 0.052 nM.
For `COCCN(CC1CCOCC1)C[C@H](O)[C@H]1/C(F)=C/C[C@H](C)[C@@H](C)S(=O)(=O)NC(=O)c2ccc3c(c2)N(C[C@@H]2CCN21)C[C@@]1(CCCc2cc(Cl)ccc21)CO3` [Compound 25] the same measures were 36.6 nM and 0.025 nM.
For `C[C@@H]1[C@@H](C)C/C=C(\F)[C@H]([C@@H](O)CN(C)CC2CCOCC2)N2CC[C@H]2CN2C[C@@]3(CCCc4cc(Cl)ccc43)COc3ccc(cc32)C(=O)NS1(=O)=O` [Compound 28] the same measures were 211 nM and 0.037 nM.
